Drawing on patent US20210228825A1, “METHODS FOR DIAGNOSING BRUGADA SYNDROME USING AN AEROSOL” (InCarda Therapeutics, Inc., priority 2018, published 2021), this text covers Cmax for one compound.

This series can be described thus: Pharmacokinetics analysis in human clinical trial FLE-001, inhalation versus intravenous flecainide, venous plasma. In kind it is in vivo. As to conditions: healthy adult volunteers, read-out: Peak plasma concentration of flecainide (Cmax). The method, then:
This example describes pharmacokinetics (PK) analysis performed during a human clinical trial (FLE-001) in which inhalation administration of flecainide was tested for safety and compared against intravenous administration of flecainide.
This was an open label non-randomized crossover in a cohort of 6 evaluable healthy adult volunteers. This part of the study consisted of two periods with each subject receiving a total of 2 doses of flecainide, one dose in each period. In Period 1, 3 subjects received flecainide acetate solution by inhalation at the dose level of 30 mg estimated lung total dose (eTLD). and 3 subjects received a single dose of 2 mg/kg (or 150 mg, whichever is less) via a 10 min intravenous (IV) infusion of flecainide (Tambocor™ Injection; approved and used in clinical practice in Australia). In Period 2, the subjects who received flecainide inhalation solution in Period 1 now received a single dose of IV flecainide (2 mg/kg or 150 mg, whichever is less, via a 10 min infusion), while the subjects who received IV flecainide in Period 1 now received flecainide inhalation solution (30 mg eTLD). […] The interpretation is that there was no carry over effect of treatment or other changes in the subjects' vital signs and ECG intervals between the two periods. […]

Structures are written as SMILES. Where two headings read alike, the source gives them in different places.

`O=C(NCC1CCCCN1)c1cc(OCC(F)(F)F)ccc1OCC(F)(F)F` (centres unmarked) [flecainide]: the Cmax by setting is: (intravenous 2 mg/kg (or 150 mg, whichever is less), 10 min infusion, mean±SD) 749 ± 308 ng/mL; (inhaled, inhalation of flecainide acetate solution, 30 mg eTLD) 120 ng/mL.
